Reference: ChEMBL document CHEMBL4732150 (J Med Chem, 2021)
pIC50: −log10 of the molar value.

Legend:
[1] = (§1) Drug metabolism in cynomolgus monkey liver microsomes assessed as 3,3-dideuterio-N-[2-(2-dimethylaminoethylamino)-4-methoxy-5-[[4-[1-(trideuteriomethyl)indol-3-yl]pyrimidin-2-yl]amino]phenyl]prop-2-enamide metabolite formation preincubated for 10 mins under shaking condition followed by NADPH generating system addition and measured up to 60 mins by LC-MS/MS analysis; format: ADME, Macaca fascicularis, Microsome; details: 1 h, time <=70 min
in vivo [2] = details: Sprague-Dawley, rat, po, 2 mg/kg
Cytochrome P450 2B6 = molecular target: T1, Cytochrome P450 2B6 (Homo sapiens, UniProt P20813); assay: Inhibition of CYP2B6 in human liver microsomes using bupropion as substrate preincubated for 10 mins in presence of NADPH generating system followed by substrate addition and measured after 10 mins by LC-MS/MS analysis; format: ADME
T1 sequence (P20813 whole entry): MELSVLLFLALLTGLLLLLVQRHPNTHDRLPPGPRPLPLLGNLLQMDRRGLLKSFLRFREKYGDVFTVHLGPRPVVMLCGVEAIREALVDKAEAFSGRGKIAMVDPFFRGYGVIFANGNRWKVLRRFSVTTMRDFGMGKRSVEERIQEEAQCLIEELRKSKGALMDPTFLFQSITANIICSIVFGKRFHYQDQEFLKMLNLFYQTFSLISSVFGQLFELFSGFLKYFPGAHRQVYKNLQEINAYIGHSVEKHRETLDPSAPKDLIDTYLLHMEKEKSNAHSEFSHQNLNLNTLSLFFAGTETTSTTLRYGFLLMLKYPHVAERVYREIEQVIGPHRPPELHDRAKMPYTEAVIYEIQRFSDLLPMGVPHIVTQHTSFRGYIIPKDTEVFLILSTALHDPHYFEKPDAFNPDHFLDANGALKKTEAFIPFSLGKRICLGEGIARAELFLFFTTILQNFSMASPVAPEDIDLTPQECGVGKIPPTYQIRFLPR

Cytochrome P450 2C9 = Cytochrome P450 2C9 (Homo sapiens, UniProt P11712); assay: Inhibition of CYP2C9 in human liver microsomes using diclofenac as substrate preincubated for 10 mins in presence of NADPH generating system followed by substrate addition and measured after 10 mins by LC-MS/MS analysis; format: ADME
Sequence of Cytochrome P450 2C9 (P11712 whole entry): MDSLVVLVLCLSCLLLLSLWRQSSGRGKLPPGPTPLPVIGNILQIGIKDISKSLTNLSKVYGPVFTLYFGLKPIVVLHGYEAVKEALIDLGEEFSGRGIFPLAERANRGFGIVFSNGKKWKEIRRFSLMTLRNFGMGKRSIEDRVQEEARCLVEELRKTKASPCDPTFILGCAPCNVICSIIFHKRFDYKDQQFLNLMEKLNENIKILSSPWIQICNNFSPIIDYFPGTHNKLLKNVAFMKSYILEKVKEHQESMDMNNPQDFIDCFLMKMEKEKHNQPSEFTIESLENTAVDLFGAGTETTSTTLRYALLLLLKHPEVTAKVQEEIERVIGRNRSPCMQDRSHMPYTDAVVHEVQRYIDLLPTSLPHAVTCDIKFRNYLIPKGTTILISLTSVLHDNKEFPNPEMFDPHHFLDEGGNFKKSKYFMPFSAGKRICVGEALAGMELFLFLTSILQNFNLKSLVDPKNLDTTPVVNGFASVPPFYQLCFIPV

[3] = as §1, with “Sprague-Dawley rat” for “cynomolgus monkey”; format: ADME, Microsome; details: 1 h, time <=70 min
in vivo [4] = details: Sprague-Dawley, rat, po, 6 mg/kg
[5] = Tmax in Sprague-Dawley rat at 2 mg/kg, IG administered as single dose and measured upto 24 hrs by LC-MS/MS analysis; format: ADME, organism-based; details: in vivo, po
[6] = Half life in CD1 mouse liver microsomes preincubated for 10 mins under shaking condition followed by NADPH generating system addition and measured up to 60 mins by LC-MS/MS analysis
Cytochrome P450 2C19 = Cytochrome P450 2C19 (Homo sapiens, UniProt P33261); assay: Inhibition of CYP2C19 in human liver microsomes using S-mephenytoin as substrate preincubated for 10 mins in presence of NADPH generating system followed by substrate addition and measured after 20 mins by LC-MS/MS analysis; format: ADME
Sequence of Cytochrome P450 2C19 (P33261 whole entry): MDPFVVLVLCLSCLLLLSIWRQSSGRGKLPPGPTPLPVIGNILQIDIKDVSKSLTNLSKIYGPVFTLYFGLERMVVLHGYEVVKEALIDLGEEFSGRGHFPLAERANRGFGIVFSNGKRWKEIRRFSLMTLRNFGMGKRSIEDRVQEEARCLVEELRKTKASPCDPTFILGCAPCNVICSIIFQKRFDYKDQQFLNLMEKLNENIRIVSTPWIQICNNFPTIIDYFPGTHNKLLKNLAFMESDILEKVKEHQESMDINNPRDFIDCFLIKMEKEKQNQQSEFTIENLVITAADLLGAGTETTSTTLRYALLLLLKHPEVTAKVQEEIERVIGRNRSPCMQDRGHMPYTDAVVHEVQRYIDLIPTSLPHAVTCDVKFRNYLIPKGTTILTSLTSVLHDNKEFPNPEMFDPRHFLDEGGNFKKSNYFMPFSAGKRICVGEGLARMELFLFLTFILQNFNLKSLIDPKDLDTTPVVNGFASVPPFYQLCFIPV

[7] = as §1, with “Beagle dog” for “cynomolgus monkey”; format: ADME, Canis lupus familiaris, Microsome; details: 1 h, time <=70 min
[8] = (§2) Drug metabolism in Sprague-Dawley rat liver microsomes assessed as 3,3-dideuterio-N-[4-methoxy-2-[methyl-[2-(methylamino)ethyl]amino]-5-[[4-[1-(trideuteriomethyl)indol-3-yl]pyrimidin-2-yl]amino]phenyl]prop-2-enamide metabolite formation preincubated for 10 mins under shaking condition followed by NADPH generating system addition and measured up to 60 mins by LC-MS/MS analysis; format: ADME, Microsome; details: 1 h, time <=70 min
[9] = Intrinsic clearance in Beagle dog liver microsomes preincubated for 10 mins under shaking condition followed by NADPH generating system addition and measured up to 60 mins by LC-MS/MS analysis; format: ADME, Canis lupus familiaris, Microsome; details: 1 h, time <=70 min
[10] = as §2, with “Beagle dog” for “Sprague-Dawley rat”; format: ADME, Canis lupus familiaris, Microsome; details: 1 h, time <=70 min
[11] = Half life in Sprague-Dawley rat liver microsomes preincubated for 10 mins under shaking condition followed by NADPH generating system addition and measured up to 20 mins by LC-MS/MS analysis
in vivo [12] = details: Sprague-Dawley, rat, po, 12 mg/kg
[13] = Cmax in Sprague-Dawley rat at 6 mg/kg/day, IG and measured on day 7 by LC-MS/MS analysis; format: ADME, organism-based; design: route […], dose 6 mg/kg/day, time 7 day; details: in vivo, po
[14] = as §1, with “CD1 mouse” for “cynomolgus monkey”; format: ADME, Microsome; details: 1 h, time <=70 min
[15] = Drug metabolism in cynomolgus monkey liver microsomes assessed as 3,3-dideuterio-N-[4-methoxy-2-[methyl-[2-(methylamino)ethyl]amino]-5-[[4-[1-(trideuteriomethyl)indol-3-yl]pyrimidin-2-yl]amino]phenyl]prop-2-enamide metabolite formation preincubated for 10 mins under shaking condition followed by NADPH generating system addition and measured up to 60 mins by LC-MS/MS analysis; format: ADME, Macaca fascicularis, Microsome; details: 1 h, time <=70 min
[16] = Intrinsic clearance in CD1 mouse liver microsomes preincubated for 10 mins under shaking condition followed by NADPH generating system addition and measured up to 60 mins by LC-MS/MS analysis; format: ADME, Microsome; details: 1 h, time <=70 min
[17] = Tmax in Sprague-Dawley rat at 12 mg/kg, IG administered as single dose and measured upto 24 hrs by LC-MS/MS analysis; format: ADME, organism-based; details: in vivo, po
Cytochrome P450 2D6 = Cytochrome P450 2D6 (Homo sapiens, UniProt P10635); assay: Inhibition of CYP2D6 in human liver microsomes using dextromethorphan as substrate preincubated for 10 mins in presence of NADPH generating system followed by substrate addition and measured after 20 mins by LC-MS/MS analysis; format: ADME
Sequence of Cytochrome P450 2D6 (P10635 whole entry): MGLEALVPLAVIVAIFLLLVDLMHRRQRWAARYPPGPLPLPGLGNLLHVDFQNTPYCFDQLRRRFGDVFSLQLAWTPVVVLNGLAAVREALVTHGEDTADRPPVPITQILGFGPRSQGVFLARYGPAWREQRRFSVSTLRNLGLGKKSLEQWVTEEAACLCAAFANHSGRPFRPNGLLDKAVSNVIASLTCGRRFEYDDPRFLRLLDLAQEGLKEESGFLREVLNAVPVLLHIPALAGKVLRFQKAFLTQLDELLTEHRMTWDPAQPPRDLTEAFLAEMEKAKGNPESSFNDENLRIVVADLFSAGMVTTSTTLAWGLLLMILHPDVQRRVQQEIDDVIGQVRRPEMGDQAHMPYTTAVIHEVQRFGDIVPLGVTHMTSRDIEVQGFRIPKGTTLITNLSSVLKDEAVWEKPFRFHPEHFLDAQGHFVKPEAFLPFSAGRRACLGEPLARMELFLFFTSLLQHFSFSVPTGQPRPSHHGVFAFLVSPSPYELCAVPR

CS(=O)(=O)O.[2H]C([2H])=CC(=O)Nc1cc(Nc2nccc(-c3cn(C([2H])([2H])[2H])c4ccccc34)n2)c(OC)cc1N(C)CCN(C)C
Drug metabolism [1]: Metabolite_Detected
half-life at 24 h (in vivo [2]): 3.76 h
pIC50 (Cytochrome P450 2B6): < 4.30
pIC50 (Cytochrome P450 2C9): < 4.30
Drug metabolism [3]: Metabolite_Detected
CL/F at 168 h (in vivo [4]): 325 mL/min/kg
Tmax [5]: 4.17 h
half-life at 1 h [6]: 0.395 h
pIC50 (Cytochrome P450 2C19): 4.37
Drug metabolism [7]: Metabolite_Detected
Drug metabolism [8]: Metabolite_Detected
CLint [9]: 61.3 µL/min/mg
Drug metabolism [10]: Metabolite_Detected
half-life at 20 min [11]: 0.577 h
half-life at 24 h (in vivo [12]): 4.04 h
Cmax [13]: 180 nM
Drug metabolism [14]: Metabolite_Detected
Drug metabolism [15]: Metabolite_Detected
CLint [16]: 58.6 µL/min/mg
Tmax [17]: 5 h
pIC50 (Cytochrome P450 2D6): < 4.30
